Data taken from paper PMC13168289, “Potent acridone antimalarial against all three life stages of Plasmodium” (Nature Communications, 2026).
Read-outs that look alike come from different tables or passages of the source.

Assays:
[1] = test system: P. falciparum mutant T111 lines; assay: drug susceptibility of T111-selected cyt b mutant lines; type: cell-based, Plasmodium falciparum
Description: DNA extractions were performed on clonal parasites using the QIAamp DNA extraction kit (QIAGEN Inc, Valencia, CA) or ZYMO Quick gDNA Miniprep kit (Zymo Research Corp, Irvine, CA). For sequencing of the open reading frame of pfcytb, PCR was performed with genomic DNA using forward and reverse flanking primers for cyt b primer 1: 5’-[…]-3’ and primer 2: 5’-[…]-3’. PCR products were subjected to enzymatic cleanup with ExoSAP-IT (Thermo Fisher Scientific) and sent for Sanger sequencing (Eurofins Genomics, Louisville, KY) with PCR primer 2 paired with an internal forward primer: 5’-[…]-3’ and an internal reverse primer: 5’-[…]-3’. Sequences were assembled using 4Peaks software (Nucleobytes, Amsterdam, Netherlands) and aligned with Clustal Omega (EMBL-EBI). For sequencing of the open reading frame of pfdhodh, PCR was performed with genomic DNA using forward primer: 5’-[…]-3’ and reverse primer: 5’-[…]-3’. PCR products were prepared for Sanger sequencing and analyzed as described above, except using two forward primers: 5’-[…]-3’ and 5’-[…]-3’ and with two reverse primers: 5’-[…]-3’ and 5’-[…]-3’.
(§1) Drug susceptibility assays against P. falciparum strains were performed using a SYBR Green based assay. D6 and Dd2 were obtained from MR4. Tm90-C2B was obtained from WRAIR. Dd2-D1^I22L and ELQ-300 were obtained from VAPORHCS. D10yDHODH was obtained as a courtesy from Dr. Akhil Vaidya at Drexel University. P. yoelii ATV^r and ELQ-300^r clones were obtained from VAPORHCS.

[2] = test system: P. falciparum K13 mutant parasites SP045 and SP060; assay: Growth, Resistance, and Recovery Assay (GRRA), ring-stage survival dose-response; type: cell-based, Plasmodium falciparum; conditions: Plasmodium falciparum
Description: These isolates carry the validated R561H Kelch 13 propeller domain mutation associated with delayed parasite clearance in East Africa[24],[25]. Using the 6-hour GRRA[23], all strains were thawed, frozen, and cultured under standard conditions at 5% hematocrit. Samples parasitemia was measured by flow cytometry. Parasite cultures that were predominantly segmented schizonts were synchronized using a single Percoll layer method. Cultures that met quality control requirements of ≥70% early ring stage and ≥1% parasitemia were adjusted to 0.25% parasitemia at 2% hematocrit. […] The GRRA50 implements 11 RSA experiments to generate a dose-response curve for each parasite line per drug. Master mixes of samples were aliquoted into 2 technical replicates of 275 µL each in 96 well plates (2 treated each condition, 2 untreated). At 6 h post-exposure, 200 µL of media was removed from the wells and replaced with 200 µL of incomplete media and spun for 3 min at 800 g to rinse. The rinse was repeated a total of 3 times, after which 200 µL complete media was added back to the wells. At 120 h post-treatment, thin microscopy smears were made using 2 µL of culture for each sample and 20 µL of culture was transferred to PCR strips and stored at −80 °C until qPCR quantification. A standard curve of known parasitemia was generated using the NF54 parasite line for each qPCR quantification for conversion from Cycle threshold (Ct) to parasitemia and comparison between qPCR experiments. Replicate viability was calculated according to the GRRA method. Each individual reaction mixture and cycling conditions were set to previously used methods. Ct was calculated using AB1 SDA 2.4.1. software. […] We find that commonly reported thresholds (cutoffs) for resistance (e.g., 1% survival in traditional RSA) may not be broadly applicable, especially with lower thresholds subject to potential artifacts due to markedly low survival rates of ART-sensitive and low-level ART-resistant parasites. Regular RSA relies on a single drug concentration, 700 nM. To gain a more fine-scale quantification to compare drug susceptibilities with relevance to therapeutic success and failure, we developed the GRRA50 to generate full dose-response curves for precise quantitative comparisons.

[3] = test system: P. yoelii wild type, ATV^r and ELQ-300^r clones; assay: 4-day suppression model with ATV- and ELQ-300-resistant clones; type: in vivo, P. yoelii in CF1 mice; conditions: (95% CI)
Excerpt: Animals were housed at the VAPORHCS in Thoren Maxi-Miser microisolator cages (78 sq. in. floor space) with a maximum density of five females or four males per cage. Cages were maintained on a 12-h light/dark cycle and provided with autoclaved nesting materials (nestlets) for environmental enrichment. All mice had ad libitum access to food and water. Four- to five-week-old female and male outbred CF1 mice (Charles River Laboratories, Raleigh, NC, USA) were randomly assigned to treatment and control groups using a simple randomization procedure (e.g., computer-generated random numbers) to ensure balanced distribution of baseline body weights and starting parasitemia levels across all cohorts. Groups of four mice (n = 4, mean body weight of each group was ~30 g) were infected intravenously with 3.5 × 10^4 P. yoelii (Kenya strain, MRA-428) from a donor animal. Drug administration commenced the day after the animals were inoculated (Day 1). The test drug or the drug combination was dissolved in PEG-400 and administered by oral gavage once daily for 4 successive days in the 4-day suppression model, but only once on Day 1 in the single-dose cure model. Blood was collected via the tail vein with the aid of a syringe needle on Day 5 and then at weekly intervals through Day 28. Blood films were Giemsa-stained and examined microscopically to determine the level of parasitemia. All mice were observed daily to assess clinical signs. Animals with observable parasitemia following the experiments were euthanized; animals cleared of parasitemia from their bloodstream were observed daily with assessment of parasitemia performed weekly until Day 28, at which point, the animal(s) were scored as cured of the infection and then humanely euthanized. All treated mice with a negative smear on Day 28 were considered cured (100% protection).
as §1

[4] = test system: P. falciparum D6, Dd2, Tm90-C2B, Dd2-D1^I22L, D10yDHODH; assay: microbe, parasite or virus in culture; type: cell-based, Plasmodium falciparum; conditions: read-out: in vitro IC50 vs P. falciparum
Description: as §1

[5] = cytotoxicity against HepG2 cells; type: cell-based; conditions: human, HepG2 cells; read-out: inhibition IC50 vs HepG2
Description: Cytotoxicity was evaluated in human HepG2 liver cells, using an MTT assay. Briefly, HepG2 cells were cultured in complete Dulbecco’s modified Eagle’s medium (DMEM; Gibco-Invitrogen, No. 11995-065) prepared by supplementing DMEM with 10% heat inactivated FBS (Gibco-Invitrogen, No. 16000-036), 100 units/mL penicillin, and 100 µg/mL streptomycin. Cell viability was assessed using trypan blue. Ninety-six-well plates were seeded with 2 × 10^4 cells per well and incubated at 37 °C overnight in a humidified 5% CO2 atmosphere. Test compound plates were prepared with an INTEGRA assist plus station and 96-well plates containing 11 duplicate 2-fold serial dilutions of test compound suspended in DMSO. The diluted test compound was then added to the corresponding well preseeded with HepG2 cells. […] After incubation, 20 µL of a 0.1 mg/mL solution of resazurin diluted in PBS was added to each well, and all plates were subsequently incubated for 3–4 h in an incubator. Absorbance was determined with the Molecular Devices SpectraMax plate reader. Three independent experiments, each in duplicate, were performed, and the IC50 values were determined using GraphPad Prism software (Version 10) using the non-linear regression equation (sigmoidal dose-response, variable slope).

[6] = Plasmodium falciparum, DD2, Supplementary Table 4, Dd2
[7] = Plasmodium falciparum, DD2, Supplementary Table 4, Dd2-A131S-140I-259L-264L
[8] = Plasmodium falciparum, DD2, Supplementary Table 4, Dd2-B131S-140I-259L-264L
[9] = Plasmodium falciparum, DD2, Supplementary Table 4, Dd2-D0119L-131S-259L (pfdhodh mutation)
[10] = Plasmodium falciparum, DD2, Supplementary Table 4, Dd2-D1131S-140I-259L (pfdhodh mutation)
[11] = Dd2-A^131S-140I-259L-264L, read-out: inhibition IC50 vs P. falciparum
[12] = Dd2-A^131S-140I-259L, read-out: inhibition IC50 vs P. falciparum
[13] = Dd2-B^87V-131S-140I-259L, read-out: inhibition IC50 vs P. falciparum
[14] = Dd2-B^131S-140I-259L-264L, read-out: inhibition IC50 vs P. falciparum
[15] = Dd2-C0^119L-131S-259L (pfdhodh mutation), read-out: inhibition IC50 vs P. falciparum
[16] = Dd2-C1^131S-140I-259L (pfdhodh mutation), read-out: inhibition IC50 vs P. falciparum
[17] = Dd2, read-out: inhibition IC50 vs P. falciparum
[18] = Dd2^131S-259L, read-out: inhibition IC50 vs P. falciparum
[19] = Dd2^131S, read-out: inhibition IC50 vs P. falciparum
[20] = Dd2^259L, read-out: inhibition IC50 vs P. falciparum

Compound | IC50 [1, 6] [nM] | IC50 [1, 7] [nM] | IC50 [1, 8] [nM] | IC50 [1, 9] [nM] | IC50 [1, 10] [nM] | IC50 [1, 11] [nM] | IC50 [1, 12] [nM] | IC50 [1, 13] [nM] | IC50 [1, 14] [nM] | IC50 [1, 15] [nM] | IC50 [1, 16] [nM] | IC50 [1, 17] [nM] | IC50 [1, 18] [nM] | IC50 [1, 19] [nM] | IC50 [1, 20] [nM] | other results
C[C@H]1[C@@H](O)O[C@@H]2O[C@@]3(C)CC[C@H]4[C@H](C)CC[C@@H]1[C@@]24OO3 [DHA, dihydroartemisinin] | 1.7 ± 0.14 | 2.3 ± 0.25 | 2.3 ± 0.18 | 2.2 ± 0.18 | 2.4 ± 0.2 |  |  |  |  |  |  |  |  |  |  | IC50 ([2]; read-out: GRRA50, SP045 (K13 V555A, ART-S)): 7.7 nM; IC50 ([2]; read-out: GRRA50, SP060 (K13 R561H, ART-R)): 25 nM
Cc1cc(Nc2ccc(S(F)(F)(F)(F)F)cc2)n2nc(C(C)(F)F)nc2n1 [DSM265] |  |  |  |  |  |  |  |  |  |  |  |  |  |  |  | IC50 ([1]; Plasmodium falciparum, DD2, read-out: inhibition IC50 vs P. falciparum, Dd2): 3.2 ± 0.3 nM; IC50 ([1]; Plasmodium falciparum, DD2, read-out: inhibition IC50 vs P. falciparum, Dd2-A^131S-140I-259L): 3.2 ± 0.52 nM; IC50 ([1]; Plasmodium falciparum, DD2, read-out: inhibition IC50 vs P. falciparum, Dd2-A^131S-140I-259L-264L): 1.2 ± 0.075 nM; IC50 ([1]; Plasmodium falciparum, DD2, read-out: inhibition IC50 vs P. falciparum, Dd2-B^87V-131S-140I-259L): 3.5 ± 0.37 nM; IC50 ([1]; Plasmodium falciparum, DD2, read-out: inhibition IC50 vs P. falciparum, Dd2-B^131S-140I-259L-264L): 2.8 ± 0.3 nM; IC50 ([1]; Plasmodium falciparum, DD2, read-out: inhibition IC50 vs P. falciparum, Dd2-C0^119L-131S-259L (pfdhodh mutation)): 795 ± 235 nM; IC50 ([1]; Plasmodium falciparum, DD2, read-out: inhibition IC50 vs P. falciparum, Dd2-C1^131S-140I-259L (pfdhodh mutation)): 563 ± 203 nM; IC50 ([1]; Plasmodium falciparum, DD2, read-out: inhibition IC50 vs P. falciparum, Dd2^131S): 1.9 ± 0.22 nM; IC50 ([1]; Plasmodium falciparum, DD2, read-out: inhibition IC50 vs P. falciparum, Dd2^131S-259L): 2.8 ± 1.2 nM; IC50 ([1]; Plasmodium falciparum, DD2, read-out: inhibition IC50 vs P. falciparum, Dd2^259L): 3.3 ± 1 nM
COc1cc2[nH]c(C)c(-c3ccc(Oc4ccc(OC(F)(F)F)cc4)cc3)c(=O)c2cc1Cl [ELQ-300] |  |  |  |  |  | 35 ± 3.2 | 52 ± 5.5 | 67 ± 4.6 | 25 ± 2.7 | 221 ± 50 | 225 ± 73 | 38 ± 5 | 26 ± 5.2 | 20 ± 5.8 | 23 ± 4.3 | ED50 ([3]; P. yoelii ATVrY268S): 0.040 (0.036–0.044) mg/kg/day; ED50 ([3]; P. yoelii ELQ-300rI22L): 1.27 (0.97–1.67) mg/kg/day; ED50 ([3]; P. yoelii wild type): 0.031 (0.029–0.033) mg/kg/day; IC50 ([4]; D6): 3.5 ± 0.23 nM; IC50 ([4]; D10yDHODH): > 2500 nM; IC50 ([4]; Dd2-D1^I22L (ELQ-300-resistant)): 245 ± 27 nM; IC50 ([4]; Dd2): 3.1 ± 0.15 nM; IC50 ([4]; Tm90-C2B (cyt b Y268S, ATV-resistant)): 1.3 ± 0.084 nM
CCCCN(CCCC)CC(O)c1cc(Cl)cc2c1-c1ccc(Cl)cc1/C2=C/c1ccc(Cl)cc1 (stereo not drawn) [LUM, lumefantrine] | 1.2 ± 0.098 | 1.7 ± 0.086 | 1.7 ± 0.36 | 1.5 ± 0.11 | 2.4 ± 0.11 |  |  |  |  |  |  |  |  |  |  | 
CO/C(=C/C(N)=O)[C@H](C)[C@H](/C=C/c1csc(-c2csc([C@@H](C)/C=C/C=C/C(C)C)n2)n1)OC [MYX, myxothiazol] |  |  |  |  |  | 16 ± 4.1 | 192 ± 11 | 373 ± 11 | 34 ± 3.3 | 1540 ± 110 | 723 ± 141 | 24 ± 3.4 | 975 ± 139 | 383 ± 38 | 64 ± 13 | 
Clc1ccc2c(N3CCN(CCCN4CCN(c5ccnc6cc(Cl)ccc56)CC4)CC3)ccnc2c1 [PIP, piperaquine] | 7.4 ± 0.57 | 9.9 ± 0.65 | 12 ± 2.3 | 11 ± 1.2 | 9.1 ± 1.7 |  |  |  |  |  |  |  |  |  |  | 
OC(c1cc(C(F)(F)F)nc2c(C(F)(F)F)cccc12)C1CCCCN1 (stereo not drawn) [mefloquine] |  |  |  |  |  |  |  |  |  |  |  |  |  |  |  | IC50 at 24 h [5]: 4940 nM
ELQ-400 |  |  |  |  |  | 80 ± 15 | 133 ± 17 | 177 ± 3.1 | 126 ± 32 | 255 ± 62 | 501 ± 101 | 4 ± 0.45 | 28 ± 13 | 4.2 ± 0.41 | 24 ± 6.7 | 
